The test system of assay [1] is phosphorylated p42 and p44 MAPK in PC12 cells. In words: p42/44 MAPK activation in PC12 cells (Western blot). The format is cell-based, rat. The protocol: (§1) Phosphorylation of MAPK was analyzed in cell lysates and the loading of the lanes normalized to levels of non-phospho MAPK.
(§2) PC12 cells originated from rat pheochromocytoma purchased from ATCC, were grown to confluence in T75 flasks, containing DMEM (1000 mg/l glucose) and supplemented with 5% fetal calf serum (FCS), 10% horse serum, and a mixture of 1% of penicillin/streptomycin/nystatin [11]. NRVM cultures were prepared from ventricles of 1–2 day old Sprague-Dawley rats, as previously described (ethics number Il-106-11-2007). Briefly, the ventricles of the excised hearts were dissociated with 0.1% RDB, a protease isolated from fig tree extract (Institute of Biology, Nes-Ziona,Israel), and the dispersed cells were resuspended in F-10 culture medium containing 1 mM CaCl2, 100 U/mL penicillin-streptomycin, 5% FCS, 5% donor horse serum, and 25 mg of bromodeoxyuridine (5-bromo-2′-deoxyuridine, BrdU).Cell cultures were incubated at 37°C in a humid 5% CO2-95% air environment. For all experiments, cells were initially seeded in full-serum cultured media and then replaced into serum-free media containing the respective supplements.
PC12 cells or NRVM cultures were resuspended in RIPA (20 mM Tris–HCl pH 7.4, 200 mM NaCl, 1% Triton-X 100, 0.1% SDS, 0.2% sodium deoxycholate, 5 mM EDTA) containing cocktail protease inhibitors (Roche, Basel Switzerland). The lysates were precleared by centrifugation. Protein content was determined using the Bradford method (Sigma Chemical Co. St. Louis, MO, USA).Equal amounts of sample were resolved on sodium dodecyl sulfate-polyacrylamide gel electrophoresis (SDS-PAGE) and blotted onto polyvinylidenedifluoride membranes (Millipore, Billerica, MA, USA). Membranes were treated with blocking buffer (5% dry milk, 0.05% Tween 20 in TBS). Primary antibodies were diluted in the blocking buffer and incubated with membranes for 20 h at 4°C followed by incubation (1 h at room temperature) in dilutions of horseradish peroxidase-conjugated secondary antibodies in the same buffer. Following antibody incubations, membranes were washed in 0.5% Tween 20 TBS. Detection was achieved using Western blotting ECL reagent (Amersham, Pharmacia, Little Chalfort Buckinghamshire, UK). Quantification of the results was accomplished by measuring the optical density of the labeled bands from the autoradiograms, using the computerized imaging program Bio-1D (VilberLourmat Biotech. Bioprof., France). The values were normalized to β-actin intensity levels.

Assay [2] concerns phosphorylated p42 and p44 MAPK in neonatal rat ventricular myocytes (NRVM). The assay is described as follows: p42/44 MAPK activation in NRVM (Western blot). Type of assay: cell-based. The method, then:
PC12 cells originated from rat pheochromocytoma purchased from ATCC, were grown to confluence in T75 flasks, containing DMEM (1000 mg/l glucose) and supplemented with 5% fetal calf serum (FCS), 10% horse serum, and a mixture of 1% of penicillin/streptomycin/nystatin [11]. NRVM cultures were prepared from ventricles of 1–2 day old Sprague-Dawley rats, as previously described (ethics number Il-106-11-2007). […]
as §1
PC12 cells or NRVM cultures were resuspended in RIPA (20 mM Tris–HCl pH 7.4, 200 mM NaCl, 1% Triton-X 100, 0.1% SDS, 0.2% sodium deoxycholate, 5 mM EDTA) containing cocktail protease inhibitors (Roche, Basel Switzerland). […] Protein content was determined using the Bradford method (Sigma Chemical Co. St. Louis, MO, USA).Equal amounts of sample were resolved on sodium dodecyl sulfate-polyacrylamide gel electrophoresis (SDS-PAGE) and blotted onto polyvinylidenedifluoride membranes (Millipore, Billerica, MA, USA). […] Quantification of the results was accomplished by measuring the optical density of the labeled bands from the autoradiograms, using the computerized imaging program Bio-1D (VilberLourmat Biotech. Bioprof., France). […]

Assay [3] relates to cleaved caspase 3 in NRVM. The assay is described as follows: Cleaved caspase 3 in serum-deprived NRVM (Western blot). To be noted: serum free medium, efaroxan 10 µM, TVP1022 20 µM. The format is cell-based, rat. The method, then: NRVM cells were incubated in full serum medium for 24 h before replacing to serum free medium. […] A. Apoptotic nuclei were identified by TUNEL analysis. […] B. Representative Western blots and quantitative results of cleaved caspase 3 protein expression. The loading of the lanes was normalized to β-actin levels.
PC12 cells or NRVM cultures were resuspended in RIPA (20 mM Tris–HCl pH 7.4, 200 mM NaCl, 1% Triton-X 100, 0.1% SDS, 0.2% sodium deoxycholate, 5 mM EDTA) containing cocktail protease inhibitors (Roche, Basel Switzerland). The lysates were precleared by centrifugation. Protein content was determined using the Bradford method (Sigma Chemical Co. St. Louis, MO, USA).Equal amounts of sample were resolved on sodium dodecyl sulfate-polyacrylamide gel electrophoresis (SDS-PAGE) and blotted onto polyvinylidenedifluoride membranes (Millipore, Billerica, MA, USA). Membranes were treated with blocking buffer (5% dry milk, 0.05% Tween 20 in TBS). […] Quantification of the results was accomplished by measuring the optical density of the labeled bands from the autoradiograms, using the computerized imaging program Bio-1D (VilberLourmat Biotech. Bioprof., France). […]

Assay [4] has as its system neonatal rat ventricular myocytes (NRVM). In words: Serum deprivation-induced apoptosis in NRVM (TUNEL). To be noted: serum free medium, efaroxan 10 µM pre-incubation, TVP1022 20 µM. Type of assay: cell-based. The method, then: as §2, with “For all experiments, cells were initially seeded in full-serum cultured media and then replaced into serum-free media containing the respective supplements.” left out
In situ DNA fragmentation was performed by the terminal deoxynucleotidyl transferase-mediated deoxyuridine triphosphate-digoxigenin nick end labeling (TUNEL). […] Quantification of the apoptotic cells was calculated as the ratio of TUNEL-positive cells to the total number of cells in the same slide.
NRVM cells were incubated in full serum medium for 24 h before replacing to serum free medium. […] B. Representative Western blots and quantitative results of cleaved caspase 3 protein expression. […]

In another assay the target is I2 imidazoline receptor. In words: I2 imidazoline receptor binding assay ([3H]idazoxan). To be noted: [3H]idazoxan 2 nM, rat cerebral cortex.
The target in another assay is I1 imidazoline receptor. In words: I1 imidazoline receptor binding assay ([3H]clonidine). The note with it: [3H]clonidine 15 nM, bovine adrenal medulla glands.

Data on 5 molecules can be found in paper PMC3499525 (PLoS ONE, 2012).

Source text for I1 imidazoline receptor: (§3) The specific ligand binding to the receptors is defined as the difference between the total binding and the nonspecific binding determined in the presence of an excess of unlabelled ligand, as described in Table 1.
(§4) The specific ligand binding to the receptors is defined as the difference between the total binding and the nonspecific binding determined in the presence of an excess of unlabelled ligand (Table 1). The IC50 values (concentration causing a half-maximal inhibition of control specific binding) and Hill coefficients (nH) were determined by non-linear regression analysis of the competition curves generated with mean replicate values using Hill equation curve fitting [Y = D+((A – D)/(1+(C/C50) nH)], where Y = specific binding, D = minimum specific binding, A = maximum specific binding, C = compound concentration, C50 = IC50, and nH = slope factor). This analysis was performed using SigmaPlot ® 4.0 for Windows ® (© 1997 by SPSS Inc.). The inhibition constants (Ki) were calculated using the Cheng Prusoffequation [Ki = IC50/(1+(L/KD)], where L = concentration of radioligand in the assay, and KD = affinity of the radioligand for the receptor).
Source text for I2 imidazoline receptor: as §3, §4

Regarding `COc1cccc(-c2cc(=O)c3ccccc3o2)c1N` [PD98059], the “effect on TVP1022-induced increase of MAPK phosphorylation” value in assay [1] (PD98059 30 µM pretreatment 30 min, TVP1022 20 µM) is “significantly blocked”. Also, the “effect on TVP1022-induced ERK phosphorylation” value in assay [2] (PD98059 30 µM pre-incubation 30 min) is listed as “abolished”.

On to `CCC1(C2=NCCN2)Cc2ccccc2O1` (stereo not drawn) [efaroxan], for which the “effect on TVP1022-suppressive effects on caspase 3” value in assay [3] is “markedly reversed”. In addition, the “effect on TVP1022-induced MAPK activation” value in assay [1] (efaroxan 10 µM pre-incubation 30 min, TVP1022 20 µM) is “abolished”. Moreover, the “effect on moxonidine-induced phosphorylation of p42 and p44 MAPK” value in assay [1] (efaroxan 10 µM pre-incubation, moxonidine 1 µM) is on record as “abolished”. The “effect on TVP1022-induced cytoprotective effect (TUNEL)” value in assay [4] is given as “markedly prevented”. The “effect on TVP1022-mediated increases in p42 and p44 MAPK phosphorylation” value in assay [2] (efaroxan 10 µM pre-incubation, TVP1022 10 and 20 µM) is listed as “antagonized”.

For orientation: IC50 means the concentration at which inhibition is half-maximal. A lower IC50 goes with inhibition by little substance. Broadly, the Ki is the dissociation constant of the complex between target and ligand, obtained from inhibition or displacement. A high value points to a looser hold on the target. On to `c1ccc2c(c1)OCC(C1=NCCN1)O2` (stereo not drawn) [idazoxan, reference compound], for which, at I2 imidazoline receptor (30 min 22°C), the IC50 amounted to 0.016 µM. For the same molecule, the inhibition constant (Ki) at I2 imidazoline receptor (Cheng Prusoff equation) came out at 0.01 µM.

Turning to `COc1nc(C)nc(Cl)c1N=C1NCCN1` [monoxidine, moxonidine], the “effect on phosphorylation of p42 and p44 MAPK” value in assay [1] (1 µM, 30 min) was “increased”.

In turn, `C1COC(NC(C2CC2)C2CC2)=N1` [rilmenidine, reference compound] gave an IC50 on I1 imidazoline receptor (60 min 22°C) of 0.16 µM. The same molecule gave an inhibition constant Ki on I1 imidazoline receptor (Cheng Prusoff equation) of 0.084 µM.
